Source: patent US11667628B2, “Compounds for imaging tau proteins that accumulate in brain” (National Institutes for Quantum and Radiological Science …, priority 2012, dated 2023)

Tests used:
[1] = literature by Zhuang et al.; cited from earlier work
Aβ40 fibrils = Aβ40 fibrils (Homo sapiens, UniProt P05067); experiment: In vitro fluorometric binding assay, Aβ40 fibrils; conditions: for EC50: average±SE, concentration giving half of maximum fluorescence intensity; for λem (nm) Aβ40: detection wavelength; for λem (nm) Aβ40 / λex (nm) Aβ40: compound bound to Aβ40 polymers; for λex (nm) Aβ40: optimal excitation wavelength
Chain of Aβ40 fibrils (P05067 672-711 limits assumed): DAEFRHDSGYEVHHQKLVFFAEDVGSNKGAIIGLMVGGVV

[2] = molecular target: Human T40 (the longest tau isoform formed with 441 amino acid residues) fibrils (Homo sapiens, UniProt P10636); experiment: In vitro fluorometric binding assay, recombinant T40 tau fibrils; conditions: for EC50: average±SE, concentration giving half of maximum fluorescence intensity; for λem (nm) T40: detection wavelength; for λem (nm) T40 / λex (nm) T40: compound bound to T40 polymers; for affinity to tau pathologies: fluorometric analysis using Aβ and tau filaments formed in a test tube; for λex (nm) T40: optimal excitation wavelength; for EC50 (Aβ)/EC50 (Tau): ratio of EC50 of Aβ40 fibrils to EC50 of T40 fibrils
Chain of Human T40 (the longest tau isoform formed with 441 amino acid residues) fibrils (P10636 1-441 isoform P10636-8): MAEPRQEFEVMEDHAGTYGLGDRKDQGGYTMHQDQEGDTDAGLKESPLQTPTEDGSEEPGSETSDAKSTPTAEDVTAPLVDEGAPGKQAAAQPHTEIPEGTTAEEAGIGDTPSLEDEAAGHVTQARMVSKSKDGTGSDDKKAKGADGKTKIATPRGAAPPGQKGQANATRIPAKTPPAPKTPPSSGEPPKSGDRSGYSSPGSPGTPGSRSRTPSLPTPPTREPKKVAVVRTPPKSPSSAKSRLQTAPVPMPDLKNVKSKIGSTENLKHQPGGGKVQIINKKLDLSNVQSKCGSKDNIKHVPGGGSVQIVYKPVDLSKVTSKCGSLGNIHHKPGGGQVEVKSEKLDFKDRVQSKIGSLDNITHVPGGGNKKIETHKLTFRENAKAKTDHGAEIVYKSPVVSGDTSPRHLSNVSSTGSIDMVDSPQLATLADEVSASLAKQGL

[3] = tested on: fibrous aggregate pathologies in AD grey matter; experiment: In vitro autoradiography, AD frontal cortex sections; type: binding, human; conditions: up to 1 nM radioligand
[4] = tested on: NFTs in AD brain slices including the hippocampal formation; experiment: In vitro autoradiography of AD brains including hippocampal formation; type: binding, human; conditions: for total binding after addition of non-radioactive PBB5 (100 μM) and thioflavin-S (10 μM) / signals in hippocampus CAI region and pes hippocampi: 10 nM radioligand; for signals in hippocampus CAI region and pes hippocampi: AD patient's brain slice
Method: 12 to 15-month-old non-Tg WT mice and PS19 mice were decapitated, and their brains were frozen and sliced into 20 μm-thick sections in a cryostat (HM560). The sections were placed on slide glass (Matsunami Glass), and kept at −80° C., until an analysis. Similarly, sections of the cerebral cortex were obtained from an AD patient. […] Non-specific bonding was detected in the presence of a 10 μMV non-radioactive ligand. Samples were reacted with [^11C]PBB2 or [^11C]PBB3, and were each washed twice, for 2 minutes, with an ice-cool Tris-HCl buffer solution containing 20% or 10% ethanol, and immersed in ice water for 10 seconds. After that, the sections were dried with warm air, and placed on imaging plates (Fuji Film). The imaging plates were scanned by a BAS500 system (Fuji Film), and autoradiograms were obtained (FIG. 6A).
In order to compare the binding of [^11C]PBB3 and [^11C]PIB to areas inside the human brain where there were plenty of tau pathologies, in vitro autoradiograms were obtained using AD brain slices including the hippocampal formation.

[5] = tested on: NFTs in the AD patient's hippocampus; experiment: In vivo PET imaging of humans; parameters: species or system human; conditions: same AD and normal control subjects
Text: 2 subjects with normal cognitive function ([…]; average 73.5 years old), and 3 AD patients ([…] years old; average 72 years old) were employed for this study. All the subjects were males, and all the AD patients were diagnosed in accordance with the standards of the National Institute of Neurological and Communicative Diseases and Stroke/Alzheimer's Disease and Related Disorders Association (NINCDS-ADRDA). The clinical dementia rating scale was 0 for both normal subjects, and ranged from 1 to 2 with the AD patients. Their cognitive function was evaluated by a mini-mental state examination (MMSE). […] During the [^11C]PBB-PET scanning, artery blood samples are obtained 10, 20, 30, 40, 50, 60, 70, 80, 90, 100, and 110 seconds after the injection, and 2, 2.5, 3, 4, 5, 6, 7, 8, 9, 10, 12, 15, 20, 25, 30, 40, 50, 60 and 70 minutes after the injection, and the amount of radioactivity in the plasma was measured. The radioactivity to match [^11C]PBB3 in unmetabolized plasma was measured by HPLC using the samples from 3, 10, 20, 30 and 60 minutes after the injection (Waters mBondapak C18 column, 7.8 mm×300 mm; acetonitrile/ammonium formate mobile phase, gradient elution=40/60 (0 minutes), 52/48 (6 minutes), 80/20 (7 minutes), 80/20 (8 minutes), 40/60 (9 minutes) and 40/60 (15 minutes); flow rate, 6 mL/minute). […]

For `O=C(O)c1cc(/C=C/c2ccc(/C=C/c3ccc(O)c(C(=O)O)c3)c(F)c2)ccc1O` [FSB, (E,E)-1-fluoro-2,5-bis(3-hydroxycarbonyl-4-hydroxy)styrylbenzene], the “passing the blood brain barrier” value [1] is given as “difficulty passing the blood brain barrier”.

In the case of `CN(C)c1ccc(/C=C/C=C/c2nc3ccccc3s2)cc1` [PBB1, 4-((1E,3E)-4-(benz[d]thiazole-2-yl)buta-1,3-dienyl)-N,N-dimethylaniline], the EC50 (Aβ40 fibrils) is reported as 4110 nM, the “λem (nm) Aβ40” value (Aβ40 fibrils) is reported as 565 nm and the “λex (nm) Aβ40” value (Aβ40 fibrils) is reported as 440 nm. The EC50 [2] was 402 ± 352 nM, the “λem (nm) T40” value [2] was 565 nm and the “affinity to tau pathologies” value [2] was “high affinity”. For the same compound, the “λex (nm) T40” value [2] was 515 nm and the “EC50 (Aβ)/EC50 (Tau)” value [2] was 10.2.

With `CC[n+]1c(/C=C/C=C/c2ccc(N(C)C)cc2)sc2ccccc21` [PBB5, 2-((1E,3E)-4-(4-(dimethylamino)phenyl)buta-1,3-dienyl)-3-ethylbenzo[d] thiazole-3-ium] the EC50 (Aβ40 fibrils) was 1220 nM, the “λem (nm) Aβ40” value (Aβ40 fibrils) was 685 nm and the “λex (nm) Aβ40” value (Aβ40 fibrils) was 635 nm. For the same compound, the EC50 [2] was 126 ± 67 nM, the “λem (nm) T40” value [2] was 685 nm and the “affinity to tau pathologies” value [2] was “high affinity”. The “λex (nm) T40” value [2] was 630 nm and the “EC50 (Aβ)/EC50 (Tau)” value [2] was 9.7.

For `Cc1ccc2c(c1)sc(-c1ccc(N(C)C)cc1)[n+]2C.[Cl-]` [Thioflavin-T, reference compound], the “λem (nm) Aβ40” value (Aβ40 fibrils) was 495 nm, the “λex (nm) Aβ40” value (Aβ40 fibrils) was 445 nm and the “λem (nm) T40” value [2] was 485 nm. For the same compound, the “λex (nm) T40” value [2] was 445 nm.

In the case of `[11CH3]Nc1ccc(/C=C/C=C/c2nc3ccc(O)cc3s2)cc1` [[^11C]PBB2, 2-((1E,3E)-4-(4-([^11C]methylamino)phenyl)buta-1,3-dienyl)benz[d]thiazole-6-ol], the “radiolabeling of fibrous aggregate pathologies, AD grey matters” value [3] is reported as “strongly radio-labeled”.

With `[11CH3]Nc1ccc(/C=C/C=C/c2nc3ccc(O)cc3s2)cn1` [[^11C]PBB3, 2-((1E,3E)-4-(6-([^11C]methylamino)pyridine-3-yl)buta-1,3-dienyl)benz[d]thiazole-6-ol] the “radiolabeling of fibrous aggregate pathologies, AD grey matters” value [3] was “strongly radio-labeled”, the “total binding after addition of non-radioactive PBB5 (100 μM) and thioflavin-S (10 μM)” value [4] was “clearly discarded” and the “signals in hippocampus CAI region and pes hippocampi” value [4] was “Strong [^11C]PBB3 signals were observed”. For the same compound, the “binding in cortex region in the side of the collateral sulcus” value ([4]; compared to [^11C]PIB) was “more binding” and the “PET signal in hippocampal formation of AD patient compared to NC” value [5] was “increased”.

For `[11CH3]Nc1ccc(-c2nc3ccc(O)cc3s2)cc1` [[^11C]PIB, reference compound], the “total binding after addition of non-radioactive PBB5 (100 μM) and thioflavin-S (10 μM)” value [4] was “clearly discarded, except for the white matter”, the “signals in hippocampus CAI region and pes hippocampi” value [4] was “no [^11C]PIB signal was observed” and the “PET signal in hippocampal formation of AD patient compared to NC” value [5] was “did not change much”.

For thioflavin-S, the “passing the blood brain barrier” value [1] is given as “difficulty passing the blood brain barrier”.
